The target in the test is InhA, NADH-dependent enoyl-[Acyl-Carrier-Protein] reductase (Mycobacterium tuberculosis, UniProt P9WGR1). Kind of test: enzyme turnover, NADH oxidation at […] nm. The class given is biochemical.
Sequence of InhA, NADH-dependent enoyl-[Acyl-Carrier-Protein] reductase (P9WGR1 whole entry, looked up): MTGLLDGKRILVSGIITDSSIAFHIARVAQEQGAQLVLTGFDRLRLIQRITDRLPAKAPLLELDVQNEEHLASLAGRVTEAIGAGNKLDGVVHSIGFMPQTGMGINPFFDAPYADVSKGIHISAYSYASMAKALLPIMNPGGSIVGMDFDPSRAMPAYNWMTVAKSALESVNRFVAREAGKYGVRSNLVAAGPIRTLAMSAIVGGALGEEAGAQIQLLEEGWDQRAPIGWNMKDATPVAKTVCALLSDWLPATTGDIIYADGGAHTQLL

As for `CCCCC/C=C/C(=O)SCCNC(=O)CCNC(=O)[C@H](O)C(C)(C)COP(=O)(O)OP(=O)(O)OC[C@H]1O[C@@H](n2cnc3c(N)ncnc32)[C@H](O)[C@@H]1OP(=O)(O)O` [OcCoA, 2-trans-octenoyl-CoA], the “enzyme turnover, NADH oxidation at 340 nm” value was “All three enzymes were catalytically active and oxidized NADH in the presence of the substrate 2-trans-octenoyl-CoA (OcCoA)”.

For the origin of these results see publication PMC3491834 (EMBO Molecular Medicine, 2012).
